How the values were obtained:
[1] = molecular target: T1, human CYP11B1 (Homo sapiens, UniProt P15538); experiment: Inhibition of hCYP11B1 in transfected V79 cells; type: cell-based; settings: hamster V79 cells expressing human CYP11B1; substrate 11-deoxycortisol 200 nM
T1 construct: expressed in transfected cells
T1 sequence (P15538 25-503): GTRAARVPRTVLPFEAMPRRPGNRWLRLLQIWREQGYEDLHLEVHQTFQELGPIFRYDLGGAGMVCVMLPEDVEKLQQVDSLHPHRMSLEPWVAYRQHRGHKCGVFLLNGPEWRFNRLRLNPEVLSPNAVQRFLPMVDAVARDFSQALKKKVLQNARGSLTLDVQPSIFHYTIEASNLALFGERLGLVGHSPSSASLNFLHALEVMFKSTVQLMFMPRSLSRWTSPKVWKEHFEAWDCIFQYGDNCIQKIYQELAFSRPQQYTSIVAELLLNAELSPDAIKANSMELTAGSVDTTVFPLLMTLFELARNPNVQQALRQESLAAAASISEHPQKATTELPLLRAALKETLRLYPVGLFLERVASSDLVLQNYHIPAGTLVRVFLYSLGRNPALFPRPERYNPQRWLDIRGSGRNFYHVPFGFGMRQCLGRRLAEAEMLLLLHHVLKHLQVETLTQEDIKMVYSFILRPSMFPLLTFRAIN
Summary of the method: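 V79 hamster cells stably expressing human CYP11B1 and rat NADPH-P450 reductase were preincubated with compounds for 2 h. 11-Deoxycortisol (200 nM) was then added as substrate for 30 min before ethyl acetate quench. Substrate and product were quantified by LC-MS/MS or HPLC at 260 nm, and IC50 was derived from percent inhibition.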

[2] = molecular target: T2, human CYP11B2 (Homo sapiens, UniProt P19099); experiment: Inhibition of hCYP11B2 in transfected V79 cells; type: cell-based; settings: hamster V79 cells expressing human CYP11B2; substrate 11-deoxycorticosterone 200 nM
T2 construct: expressed in transfected cells
T2 sequence (P19099 25-503): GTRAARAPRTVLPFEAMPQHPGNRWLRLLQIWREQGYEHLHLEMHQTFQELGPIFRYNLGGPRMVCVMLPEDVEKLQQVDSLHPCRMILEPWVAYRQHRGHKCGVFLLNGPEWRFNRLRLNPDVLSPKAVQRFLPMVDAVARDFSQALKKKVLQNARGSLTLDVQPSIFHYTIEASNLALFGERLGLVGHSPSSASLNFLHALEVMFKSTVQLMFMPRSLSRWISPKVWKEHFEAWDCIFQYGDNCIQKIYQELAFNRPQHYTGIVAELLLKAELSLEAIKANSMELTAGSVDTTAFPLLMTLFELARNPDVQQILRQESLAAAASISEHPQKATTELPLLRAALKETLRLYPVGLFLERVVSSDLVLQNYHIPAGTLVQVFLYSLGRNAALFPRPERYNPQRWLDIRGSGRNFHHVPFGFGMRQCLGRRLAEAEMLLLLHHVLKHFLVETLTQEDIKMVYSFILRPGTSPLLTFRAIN
Summary of the method: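 Hamster V79 cells stably co-expressing human CYP11B2 and rat NADPH-P450 reductase were pre-incubated with compounds for 2 hours, then given 200 nM 11-deoxycorticosterone for 30 minutes before ethyl acetate quench. Substrate and product were quantified by LC-MS/MS or HPLC at 260 nm, and IC50 was derived from percent inhibition.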

Compound | IC50 [1] [nM] | IC50 [2] [nM]
N#Cc1ccc(-c2cncc3c2OCCN3C(=O)CCc2ccc(C(F)(F)F)cc2)cc1 [O53, 4-(4-(3-(4-(Trifluoromethyl)phenyl)propanoyl)-3,4-dihydro-2H-pyrido[4,3-b][1,4]oxazin-8-yl)benzonitrile] | 55 | 8.2
N#Cc1ccc(-c2cncc3c2OCCN3C(=O)CCc2cccc(C(F)(F)F)c2)cc1 [O54] | 119 | 6.9
N#Cc1ccc(-c2cncc3c2OCCN3C(=O)C2CCN(S(=O)(=O)c3cccc(F)c3)CC2)cc1 [O55, 4-(4-(1-((3-Fluorophenyl)sulfonyl)piperidine-4-carbonyl)-3,4-dihydro-2H-pyrido[4,3-b][1, 4]oxazin-8-yl)benzonitrile] | 114 | 2.1
N#Cc1ccc(-c2cncc3c2OCCN3C(=O)C2CNC2)cc1 [O56, 4-(4-(Azetidine-3-carbonyl)-3,4-dihydro-2H-pyrido[4,3-b][1,4]oxazin-8-yl)benzonitrile] | 292 | 5.1
N#Cc1ccc(-c2cncc3c2OCCN3C(=O)C2CN(C(=O)c3ccc(F)cc3)C2)cc1 [O57, 4-(4-(1-(4-Fluorobenzoyl)azetidine-3-carbonyl)-3,4-dihydro-2H-pyrido[4,3-b][1,4]oxazin-8-yl)benzonitrile] | 102 | 1.6
N#Cc1ccc(-c2cncc3c2OCCN3C(=O)C2CN(C(=O)c3cccc(F)c3)C2)cc1 [O58, 4-(4-(1-(3-Fluorobenzoyl)azetidine-3-carbonyl)-3,4-dihydro-2H-pyrido[4,3-b][1,4]oxazin-8-yl)benzonitrile] | 132 | 1.9
N#Cc1ccc(-c2cncc3c2OCCN3C(=O)CNC(=O)c2ccc(F)cc2)cc1 [O59, N-(2-(8-(4-Cyanophenyl)-2,3-dihydro-4H-pyrido[4,3-b][1,4]oxazin-4-yl)-2-oxoethyl)-4-fluorobenzamide] | 276 | 2.8
N#Cc1ccc(-c2cncc3c2OCCN3C(=O)C2CN(S(=O)(=O)c3ccc(F)cc3)C2)cc1 [O60, 4-(4-(1-((4-Fluorophenyl)sulfonyl)azetidine-3-carbonyl)-3,4-dihydro-2H-pyrido[4,3-b][1,4]oxazin-8-yl)benzonitrile] | 2.5 | 0.6
N#Cc1ccc(-c2cncc3c2OCCN3C(=O)C2CN(S(=O)(=O)c3cccc(F)c3)C2)cc1 [O61, 4-(4-(1-((3-Fluorophenyl)sulfonyl)azetidine-3-carbonyl)-3,4-dihydro-2H-pyrido[4,3-b][1,4]oxazin-8-yl)benzonitrile] | 3.7 | 0.51
N#Cc1ccc(-c2cncc3c2OCCN3C(=O)C2CN(S(=O)(=O)c3ccc([N+](=O)[O-])cc3)C2)cc1 [O62, 4-(4-(1-((4-Nitrophenyl)sulfonyl)azetidine-3-carbonyl)-3,4-dihydro-2H-pyrido[4,3-b][1,4]oxazin-8-yl)benzonitrile] | 178 | 3.3
N#Cc1ccc(-c2cncc3c2OCCN3C(=O)C2CN(S(=O)(=O)c3cccc([N+](=O)[O-])c3)C2)cc1 [O63, 4-(4-(1-((3-Nitrophenyl)sulfonyl)azetidine-3-carbonyl)-3,4-dihydro-2H-pyrido[4,3-b][1,4]oxazin-8-yl)benzonitrile] | 181 | 2
N#Cc1ccc(-c2cncc3c2OCCN3C(=O)C2CN(S(=O)(=O)c3cccs3)C2)cc1 [O64, 4-(4-(1-(Thiophen-2-ylsulfonyl)azetidine-3-carbonyl)-3,4-dihydro-2H-pyrido[4,3-b][1,4]oxazin-8-yl)benzonitrile] | 63 | 0.5
Cc1ccc(S(=O)(=O)N2CC(C(=O)N3CCOc4c(-c5ccc(C#N)cc5)cncc43)C2)cc1 [O65, 4-(4-(1-Tosylazetidine-3-carbonyl)-3,4-dihydro-2H-pyrido[4,3-b][1,4]oxazin-8-yl)benzonitrile] | 521 | 2.5
COc1cccc(S(=O)(=O)N2CC(C(=O)N3CCOc4c(-c5ccc(C#N)cc5)cncc43)C2)c1 [O66, 4-(4-(1-((3-Methoxyphenyl)sulfonyl)azetidine-3-carbonyl)-3,4-dihydro-2H-pyrido[4,3-b][1, 4]oxazin-8-yl)benzonitrile] | 495 | 4.5
COc1ccc(S(=O)(=O)N2CC(C(=O)N3CCOc4c(-c5ccc(C#N)cc5)cncc43)C2)cc1 [O67, 4-(4-(1-((4-Methoxyphenyl)sulfonyl)azetidine-3-carbonyl)-3,4-dihydro-2H-pyrido[4,3-b][1, 4]oxazin-8-yl)benzonitrile] | 496 | 2.7
N#Cc1ccc(-c2cncc3c2OCCN3C(=O)C2CN(S(=O)(=O)c3cccc(C#N)c3)C2)cc1 [O68, 3-((3-(8-(4-Cyanophenyl)-3,4-dihydro-2H-pyrido[4,3-b][1,4]oxazine-4-carbonyl)azetidin-1-yl)sulfonyl)benzonitrile] | 52 | 0.7
N#Cc1ccc(-c2cncc3c2OCCN3C(=O)C2CN(S(=O)(=O)c3ccc(C#N)cc3)C2)cc1 [O69, 4-((3-(8-(4-Cyanophenyl)-3,4-dihydro-2H-pyrido[4,3-b][1,4]oxazine-4-carbonyl)azetidin-1-yl)sulfonyl)benzonitrile] | 57 | 2.1
Cc1cccc(S(=O)(=O)N2CC(C(=O)N3CCOc4c(-c5ccc(C#N)cc5)cncc43)C2)c1 [O70, 4-(4-(1-(m-Tolylsulfonyl)azetidine-3-carbonyl)-3,4-dihydro-2H-pyrido[4,3-b][1,4]oxazin-8-yl)benzonitrile] | 31.6 | 1.4
N#Cc1ccc(-c2cncc3c2OCCN3C(=O)C23CC(Nc4cccc(F)c4)(C2)C3)cc1 [O71, 4-(4-(3-((3-Fluorophenyl)amino)bicyclo[1.1.1]pentane-1-carbonyl)-3,4-dihydro-2H-pyrido[4,3-b][1,4]oxazin-8-yl)benzonitrile] | 2170 | 39
N#Cc1ccc(-c2cncc3c2OCCN3C(=O)c2ccc(Oc3ccc(F)cc3)s2)cc1 [O72, 4-(4-(5-(4-Fluorophenoxy)thiophene-2-carbonyl)-3,4-dihydro-2H-pyrido[4,3-b][1,4]oxazin-8-yl)benzonitrile] | 292 | 3.6
N#Cc1ccc(-c2cncc3c2OCCN3C(=O)N2CC3(CN(Cc4cccc(F)c4)C3)C2)cc1 [O73, 4-(4-(6-(3-Fluorobenzyl)-2,6-diazaspiro[3.3]heptane-2-carbonyl)-3,4-dihydro-2H-pyrido[4,3-b][1,4]oxazin-8-yl)benzonitrile] | 3470 | 45
N#Cc1ccc(-c2cncc3c2OCCN3C(=O)C2CN(S(=O)(=O)c3cccc(C#N)c3)C2)cc1 [O74, 3-((3-(8-(4-Cyanophenyl)-3,4-dihydro-2H-pyrido[4,3-b][1,4]oxazine-4-carbonyl)azetidin-1-yl)sulfonyl)benzonitrile] | 99 | 1.3
N#Cc1ccc(-c2cncc3c2OCCN3C(=O)C2CN(S(=O)(=O)c3ccc(C#N)cc3)C2)cc1 [O75, 4-((3-(8-(4-Cyanophenyl)-3,4-dihydro-2H-pyrido[4,3-b][1,4]oxazine-4-carbonyl)azetidin-1-yl)sulfonyl)benzonitrile] | 89 | 1.3
COc1cccc(C(=O)N2CC(C(=O)N3CCOc4c(-c5ccc(C#N)cc5)cncc43)C2)c1 [O76, 4-(4-(1-(3-Methoxybenzoyl)azetidine-3-carbonyl)-3,4-dihydro-2H-pyrido[4,3-b][1,4]oxazin-8-yl)benzonitrile] | 146 | 1.6
COc1ccc(C(=O)N2CC(C(=O)N3CCOc4c(-c5ccc(C#N)cc5)cncc43)C2)cc1 [O77, 4-(4-(1-(4-Methoxybenzoyl)azetidine-3-carbonyl)-3,4-dihydro-2H-pyrido[4,3-b][1,4]oxazin-8-yl)benzonitrile] | 195 | 2
N#Cc1ccc(-c2cncc3c2OCCN3C(=O)C2CN(Cc3cccc(F)c3)C2)cc1 [O78, 4-(4-(1-(3-Fluorobenzyl)azetidine-3-carbonyl)-3,4-dihydro-2H-pyrido[4,3-b][1,4]oxazin-8-yl)benzonitrile] | 183 | 2.1

Source: patent publication US20260092074A1, “Annelated Pyridines as Steroidogenesis Inhibitors, Preparation Method and Use Thereof” (Guangzhou Vinnocent Pharmaceutical Limited, priority 2022, published 2026)
